Results: ChEMBL document CHEMBL1159372, “Two flavone C-glycosides from the style of Zea mays with glycation inhibitory activity” (J Nat Prod, 2003)

Test: Inhibition of advanced glycation end product formation at 1 mM after 7 days by fluorescence assay
Assay type: physicochemical
Settings: 168 h, 1000 µM

SMILES	inhibition (INH) [%]
N=C(N)NN [PIMAGEDINE]	60.5
COc1cc(-c2cc(=O)c3c(O)c([C@H]4C[C@@H](O)[C@H](O)[C@H](C)O4)c(O)cc3o2)ccc1O	64.2
COc1cc(-c2cc(=O)c3c(O)c([C@H]4C[C@@H](O)[C@H](O)[C@H](C)O4)c(O[C@@H]4O[C@H](CO)[C@@H](O)[C@H](O)[C@H]4O)cc3o2)ccc1O	53
